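Interpolation was linear, between the two tested concentrations surrounding the appropriate level; five concentrations were tested over 48 hours in 96-well plates. At the GI50, growth is halved. TGI is the concentration that stops growth completely.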
Key:
Assay in all cases: DTP human tumour cell line panel, 48 h
[1] = system: A549 NSCLC
[2] = system: HCT-15 colon
[3] = system: HOP-62 NSCLC
[4] = system: KM12 colon
[5] = system: MOLT-4 leukemia
[6] = system: NCI-H460 lung
[7] = system: SF-539 CNS
[8] = system: SK-OV-3 ovarian
[9] = system: SW-620 colon
[10] = system: TK-10 renal

SMILES | GI50 [1] | TGI [1] | GI50 [2] | TGI [2] | GI50 [3] | TGI [3] | GI50 [4] | TGI [4] | GI50 [5] | TGI [5] | GI50 [6] | TGI [6] | GI50 [7] | TGI [7] | GI50 [8] | TGI [8] | GI50 [9] | TGI [9] | GI50 [10] | TGI [10]
CC1(C)CC(=O)C2=C(C1)NC(SSC1=C(C#N)C(c3ccccc3)C3=C(CC(C)(C)CC3=O)N1)=C(C#N)C2c1ccccc1 (configuration not stated) | 50.5 µg/mL | > 150 µg/mL | 26.8 µg/mL | 48.8 µg/mL | 72.3 µg/mL | > 150 µg/mL | 26.2 µg/mL | 49.7 µg/mL | 37.7 µg/mL | 104 µg/mL | 27.7 µg/mL | 50.7 µg/mL | 26.9 µg/mL | 51 µg/mL | 22.9 µg/mL | 59 µg/mL | 28.6 µg/mL | 51.8 µg/mL | 26.9 µg/mL | 48.1 µg/mL
CCOP(=O)(OCC)C1C(=O)O[C@H]2CCCC[C@@H]12 (some centres not stated) | – | > 100 µM | – | > 100 µM | – | > 100 µM | – | > 100 µM | – | > 100 µM | – | > 100 µM | – | > 100 µM | – | > 100 µM | – | > 100 µM | – | > 100 µM
Cc1ccc2c(c1)NC(c1ccc(C(=O)O)cc1)c1cccn1-2 (configuration not stated) | – | > 100 µM | – | > 100 µM | – | 58.6 µM | – | > 100 µM | – | > 100 µM | – | > 100 µM | – | > 100 µM | – | 51.8 µM | – | > 100 µM | – | > 100 µM
C/C(=N\N(C)C)c1sc(-n2nc(-c3ccccc3)cc2-c2ccccc2)nc1C | – | > 100 µM | – | > 100 µM | – | > 100 µM | – | > 100 µM | – | > 100 µM | – | > 100 µM | – | > 100 µM | – | > 100 µM | – | > 100 µM | – | > 100 µM
COc1cc[nH]c1/C=C1\C(=O)Nc2ccc(F)c(C#C[C@@H](O)[C@@H](N)[C@@H](C)O)c21 | 0.681 µM | 3.13 µM | 0.839 µM | 18.3 µM | 0.647 µM | 2 µM | 0.0312 µM | 2.19 µM | 0.6 µM | 2.06 µM | 0.515 µM | 2.77 µM | 0.472 µM | 1.12 µM | 0.744 µM | 9.65 µM | 0.559 µM | 3.07 µM | 0.258 µM | 1.86 µM
O=[N+]([O-])c1ccc(Sc2ncccn2)c([N+](=O)[O-])c1 | 3.95 µM | 14.2 µM | 2.67 µM | 11.1 µM | 15.1 µM | 30.1 µM | 4.36 µM | 15.9 µM | 2.32 µM | 25.4 µM | 6.78 µM | 24.1 µM | 2.63 µM | 8.82 µM | 12.5 µM | 25.2 µM | 2.9 µM | 8.05 µM | 2.57 µM | 5.77 µM
O=C1CC(=O)N(C2CCCCC2)C(=O)N1c1ccccc1S(=O)(=O)Oc1ccccc1 | – | > 100 µM | – | > 100 µM | – | > 100 µM | – | > 100 µM | – | 37.8 µM | – | > 100 µM | – | > 100 µM | – | > 100 µM | – | > 100 µM | – | > 100 µM
CCOC(=O)/N=c1\ss/c(=N\C(=S)N(C)C)n1-c1ccccc1 | > 100 µM | > 100 µM | > 100 µM | > 100 µM | – | > 100 µM | > 100 µM | > 100 µM | > 100 µM | > 100 µM | 35.2 µM | > 100 µM | – | > 100 µM | > 100 µM | > 100 µM | > 100 µM | > 100 µM | – | > 100 µM
O/N=C1\CCc2cc(-c3nc(C4CCNCC4)[nH]c3-c3ccncc3)ccc21 | > 25 µM | > 25 µM | > 25 µM | > 25 µM | > 25 µM | > 25 µM | > 25 µM | > 25 µM | > 25 µM | > 25 µM | > 25 µM | > 25 µM | > 25 µM | > 25 µM | > 25 µM | > 25 µM | > 25 µM | > 25 µM | > 25 µM | > 25 µM
CCCCOC(=O)C(=O)C(CC(C(=O)Cc1ccccc1)c1ccccc1)C(=O)C=C(C)C (configuration not stated) | – | > 100 µM | – | > 100 µM | – | > 100 µM | – | > 100 µM | – | > 100 µM | – | > 100 µM | – | > 100 µM | – | > 100 µM | – | > 100 µM | – | > 100 µM
COc1cc(O)c(C(=O)/C=C/c2ccccc2)c(OC)c1 | – | 30 µM | – | 16.7 µM | – | 38.5 µM | – | 13.6 µM | – | 25 µM | – | 13.3 µM | – | 12.8 µM | – | 25.6 µM | – | 23.8 µM | – | 19.7 µM
C=C(c1ccccc1N)[C@@]1(O)C[C@H](/C(=C\C)CO)C[C@@H]1NCc1ccccc1 | – | > 100 µM | – | > 100 µM | – | > 100 µM | – | 33.7 µM | – | 39.7 µM | – | 42.8 µM | – | 29.9 µM | – | 73.7 µM | – | 50 µM | – | 44.1 µM
O=C1c2ccccc2-c2c1c1ccccc1c(=O)n2CCO | – | > 100 µM | – | > 100 µM | – | 32.5 µM | – | > 100 µM | – | 9.36 µM | – | 11.3 µM | – | > 94.1 µM | – | > 100 µM | – | > 100 µM | – | > 100 µM
COC(=O)Nc1nc2ccc(C(=O)c3ccc[nH]3)cc2[nH]1 | – | > 100 µM | – | > 100 µM | – | > 95.9 µM | – | > 100 µM | – | > 100 µM | – | > 100 µM | – | 42.3 µM | – | > 63 µM | – | > 100 µM | – | > 93.6 µM

— PubChem BioAssay (NCI)
